No end group written: not given here.
Tests used:
PVN and SON = experiment: AVP secretion in vitro, static incubation of PVN and SON; assay type: cell-based; settings: rat nuclei in vitro; for basal AVP secretion, static incubation of PVN and SON: peptide 10^−6 M; for AT-II-induced AVP secretion, static incubation of PVN and SON: peptide 10^−6 M + AT-II 10^−6 M
Protocol: (§1) Blood samples were taken 15 minutes after the injection of NERPs. Plasma AVP was measured using an RIA kit (manufactured by Mitsubishi). Six pieces of PVN and SON were taken from the rat hypothalamus. Each nucleus was preincubated for an hour at 37° C. in medium 199 (25 mM HEPES buffer, pH 7.4, 2.5% fetal calf serum, 2.5% bovine serum and 1% penicillin-streptomycin) equilibrated under 95% O2 (n=4 wells/group). These nuclei were sequentially stimulated 3 times each for 5 minutes, using one of NERP-1 (10^−6 M), NERP-1 (10^−6 M)+AT-II (10^−6 M) and AT-II (10^−6 M). Stimulation periods were separated by 5-minute recovery periods. Similarly, these nuclei were stimulated using one of NERP-2 (10^−6 M), NERP-2 (10^−6 M)+AT-II (10^−6 M), NERP-1-Gly (10^−6 M) and NERP-2-Gly (10^−6 M). After they were thus stimulated, KCl of 6×10^−2 M was added to confirm depolarization-induced secretion. The two pieces from rat posterior pituitary were stimulated by NERPs and AT-II under the same conditions as described above. Aliquots of the medium were provided for RIA to measure AVP. The experiment was replicated 5 times.

AVP secretion = AVP secretion in vivo after ICV administration (plasma AVP by RIA); settings: rat; for AT-II induced AVP release: ICV preadministration, AT-II (1 nmol/10 μl) ICV 5 minutes after, plasma AVP; for AVP release induced by high salt administration: ICV, hypertonic saline (850 mM NaCl/10 μl) ICV 5 minutes after, plasma AVP 15 minutes after injection
Protocol: NERP-1, NERP-1-Gly, NERP-2 or NERP-2-Gly was ICV-administered to rats, followed by ICV administration of hypertonic saline (850 mM NaCl/10 μl) or angiotensin II (AT-II) (1 nmol/10 μl) 5 minutes after.
as §1

posterior pituitary = experiment: AVP secretion in vitro, static incubation of posterior pituitary; assay type: cell-based; settings: rat posterior pituitary in vitro, same conditions (10^−6 M)
Protocol: as §1

SON neurons = assay type: cell-based, rat; settings: for GABAergic IPSC in the SON neurons: holding potential −20 mV
[1] = tested on: orexin knockout mice and wild-type mice; experiment: Locomotor stimulating activity in mice after ICV administration; assay type: in vivo, mouse; settings: ICV 5 nmol/2 μl saline, counts summed 30 to 120 minutes after administration
Protocol: Movement of mice given an ICV administration of NERP-2 (5 nmol/2 μl saline) or vehicle was measured in sound- and light-proof cages equipped with an infrared detector (Muromachi Co. Ltd., Tokyo, Japan) as previously described according to the method described in Endocrinology, 144, 4729-4733 (2003). Locomotor activity counts were measured every 15 minutes and summed for the period of 30 minutes to 120 minutes after the administration.

[2] = tested on: orexin knockout mice and wild-type littermates; experiment: One-hour food intake in orexin knockout mice and wild-type littermates after ICV injection; assay type: in vivo, mouse; settings: ICV 1 nmol/2 μl saline
Protocol: (§2) To assess feeding, NERP-1, NERP-2 or NERP-2-Gly (0.1-5 nmol/10 μl) was ICV-injected to rats (n=15 per group) at 09:30. Anti-orexin A IgG (0.25 μg/10 μl, Santa Cruz) and anti-orexin B IgG (0.25 μg/10 μl, Santa Cruz) or anti-MCH IgG (0.5 μg/10 μl, Phoenix) was ICV-injected at 09:00 to rats (n=12 per group). In all cases, IgG was injected […] before the NERP-2 administration. Food intake was monitored for an hour. In mouse experiments, NERP-2 (1 nmol/2 μl saline) or MCH (1 nmol/2 μl saline) was ICV-injected to orexin knockout mice (Cell, 92, 573-585 (1998)) and wild-type littermates (n=5 per group, 4 month-old male), then one-hour food intake was measured. Orexin knockout mice were prepared by targeted mutation in ES cells (Cell, 92, 573-585 (1998)).

free-feeding rats = experiment: Feeding experiments in rats after ICV injection; assay type: in vivo, rat
Protocol: as §2

Substance | basal AVP secretion, static incubation of PVN and SON (PVN and SON) | AT-II-induced AVP secretion, static incubation of PVN and SON (PVN and SON) | AT-II induced AVP release (AVP secretion) | AVP release induced by high salt administration (AVP secretion) | AVP secretion from the posterior pituitary (posterior pituitary) | IPSCs induced by NERP-1 on application of hemoglobin (Hb) (SON neurons; Hb 10^−6 M, NO scavenger, added 5 minutes after NERP-1) | presynaptic GABAergic currents induced by NERP-1 in presence of tetrodotoxin (SON neurons; TTX 10^−6 M, Na+ channel blocker, added 5 minutes after NERP-1) | amplitude of IPSC (SON neurons; rat SON slice, patch-clamp) | frequency of IPSC (SON neurons; rat SON slice, patch-clamp) | GABAergic IPSC in the SON neurons (SON neurons; rat slice, patch-clamp) | EPSC in the SON neurons (SON neurons; rat slice, patch-clamp, holding potential −70 mV) | total locomotor activity in the orexin knockout mice [1] | total locomotor activity in the wild-type mice [1] | food intake in orexin knockout mice [2] | food intake in wild-type control mice [2] | food intake during the light phase (free-feeding rats; free-feeding rats, ICV 0.1-5 nmol/10 μl, one-hour intake) | lowest effective dose for increased food intake (free-feeding rats; free-feeding rats, ICV, light phase) [nmol] | behavior compared to the control group (free-feeding rats; rats receiving ICV injection) | duration of orexigenic effect after the ICV injection (free-feeding rats; rats, ICV)
NERP-1: VGF-derived peptide; human, rat and mouse sequences are SEQ ID NO: 4, 5 and 6; rat form an amidated 25-amino acid peptide (RPESALLGGSEAGERLLQQGLAQVEA; Neuroendocrine regulatory peptide-1; UniProt O15240 281-306, looked up) [VGF-derived peptide; rat form an amidated 25-amino acid peptide] | suppressed | suppressed | suppressed | dose-dependently suppressed | suppressed | not affected | remained unchanged | did not increase | increased | increased | did not increase |  |  |  |  |  |  |  | 
NERP-2: VGF-derived peptide; human, rat and mouse sequences are SEQ ID NO: 7, 8 and 9; rat form an amidated 38-amino acid peptide (QAEATRQAAAQEERLADLASDLLLQYLLQGGARQRGLG; also: rat form amidated, species of this chain not given here; UniProt O15240 310-347, looked up) [VGF-derived peptide; rat form an amidated 38-amino acid peptide] | suppressed | suppressed | inhibited | inhibited |  |  |  |  |  | increased |  | did not stimulate | stimulated | did not stimulate | stimulated | dose-dependently increased | 0.1 | remained alert and showed no unusual behavior | did not last longer than an hour

Reference: patent publication US20100040621A1, “Novel polpeptide and use thereof” (TAKEDA PHARMACEUTICAL COMPANY LIMITED, priority 2005, published 2010)
